Patent US20230330067A1, “NOVEL THIOHYDANTOIN DERIVATIVES AND USES THEREOF” (CELROS BIOTECH, priority 2020, published 2023)

What was measured:
[1] = biological target: T1, human Nox1 (Homo sapiens, UniProt Q9Y5S8); assay: Lucigenin chemiluminescence assay, human Nox1; assay type: biochemical; conditions: Drosophila membranes expressing hNox1; average of three assays
T1 construct: made in house; host or cells: transgenic Drosophila (UAS-hNox1/UAS-dDuox-RNAi; Da-GAL4/+), membranes from fly homogenate
T1 sequence (Q9Y5S8 1-564): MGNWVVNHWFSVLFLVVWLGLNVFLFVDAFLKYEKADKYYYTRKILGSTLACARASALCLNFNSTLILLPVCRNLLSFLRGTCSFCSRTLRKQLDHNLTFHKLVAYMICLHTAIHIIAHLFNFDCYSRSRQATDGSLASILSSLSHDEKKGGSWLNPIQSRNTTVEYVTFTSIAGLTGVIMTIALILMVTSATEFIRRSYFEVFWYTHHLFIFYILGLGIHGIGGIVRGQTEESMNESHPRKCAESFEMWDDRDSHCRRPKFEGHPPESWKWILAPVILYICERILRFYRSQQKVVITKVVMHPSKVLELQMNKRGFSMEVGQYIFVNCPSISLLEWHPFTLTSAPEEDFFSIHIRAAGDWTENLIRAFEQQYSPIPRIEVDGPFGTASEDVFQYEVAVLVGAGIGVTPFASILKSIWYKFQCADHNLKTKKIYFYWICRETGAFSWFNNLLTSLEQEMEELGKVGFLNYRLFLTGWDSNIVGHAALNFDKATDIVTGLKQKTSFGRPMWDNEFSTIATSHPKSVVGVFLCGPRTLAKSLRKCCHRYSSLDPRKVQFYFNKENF
Source text: (§1) Human Nox isozymes were provided from transgenic flies expressing human Nox isozymes under the daughterless (Da)-GAL4 promoter. The genotype of each fly line is shown below. • 1) Human Nox1: UAS-hNox1/UAS-dDuox-RNAi; Da-GAL4/+ • 2) Human Nox2: UAS-hNox2/UAS-dDuox-RNAi; Da-GAL4/+ • 3) Human Nox4: UAS-hNox4/UAS-dDuox-RNAi; Da-GAL4/+
(§2) Transgenic flies were homogenized with PBS containing protease inhibitors (Aprotinin and Leupeptin) to obtain Drosophila membranes of each Nox isozyme. The membranes were incubated with compounds (100 μM, 10 μM, 1 μM, 0.1 μM, 0.01 μM, 0.001 μM, and 0 μM) for 10 min on a shaker. After that, a mixture of 500 μM NADPH (beta-nicotinamide adenine dinucleotide 2′-phosphate reduced tetrasodium salt hydrate; Sigma-Aldrich) and 400 μM lucigenin (N,N′-dimethyl-9,9′-biacridinium dinitrate; Sigma-Aldrich) in 1X HEPES (4-(2-hydroxyethyl)-1-piperazineethanesulfonic acid) buffer was added to the membrane. Lucigenin chemiluminescence was detected at 1 minute intervals for 10 min using a multimode microplate reader (SpectraMax iD3, Molecular Devices). IC50 values were calculated with Graph-Pad Prism 5 (GraphPad Software).
(§3) Lucigenin chemiluminescence assays were performed with Drosophila membranes expressing hNox1, hNox2 and hNox4. The assay was repeated three times and the average of the IC50 values was determined.

[2] = biological target: T2, human Nox2 (Homo sapiens, UniProt P04839); assay: Lucigenin chemiluminescence assay, human Nox2; assay type: biochemical; conditions: Drosophila membranes expressing hNox2; average of three assays
T2 construct: made in house; host or cells: transgenic Drosophila (UAS-hNox2/UAS-dDuox-RNAi; Da-GAL4/+), membranes from fly homogenate
T2 sequence (P04839 2-570 limits assumed): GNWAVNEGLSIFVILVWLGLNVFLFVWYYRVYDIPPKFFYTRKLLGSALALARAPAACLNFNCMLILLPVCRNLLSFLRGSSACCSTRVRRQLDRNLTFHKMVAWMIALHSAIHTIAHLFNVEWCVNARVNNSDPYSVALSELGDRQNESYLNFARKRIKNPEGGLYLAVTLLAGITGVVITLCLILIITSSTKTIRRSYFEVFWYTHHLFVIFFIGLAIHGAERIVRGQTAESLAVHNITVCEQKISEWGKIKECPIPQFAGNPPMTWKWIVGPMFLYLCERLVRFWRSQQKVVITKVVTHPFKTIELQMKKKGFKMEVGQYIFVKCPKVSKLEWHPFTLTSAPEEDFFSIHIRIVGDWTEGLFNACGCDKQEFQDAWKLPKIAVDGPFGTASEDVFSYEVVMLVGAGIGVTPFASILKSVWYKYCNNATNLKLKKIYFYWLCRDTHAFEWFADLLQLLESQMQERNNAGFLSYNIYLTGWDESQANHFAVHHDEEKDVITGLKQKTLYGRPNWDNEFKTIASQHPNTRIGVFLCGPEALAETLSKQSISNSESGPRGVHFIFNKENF
Source text: as §1, §2, §3

[3] = biological target: T3, human Nox4 (Homo sapiens, UniProt Q9NPH5); assay: Lucigenin chemiluminescence assay, human Nox4; assay type: biochemical; conditions: Drosophila membranes expressing hNox4; average of three assays
T3 construct: made in house; host or cells: transgenic Drosophila (UAS-hNox4/UAS-dDuox-RNAi; Da-GAL4/+), membranes from fly homogenate
T3 sequence (Q9NPH5 1-578): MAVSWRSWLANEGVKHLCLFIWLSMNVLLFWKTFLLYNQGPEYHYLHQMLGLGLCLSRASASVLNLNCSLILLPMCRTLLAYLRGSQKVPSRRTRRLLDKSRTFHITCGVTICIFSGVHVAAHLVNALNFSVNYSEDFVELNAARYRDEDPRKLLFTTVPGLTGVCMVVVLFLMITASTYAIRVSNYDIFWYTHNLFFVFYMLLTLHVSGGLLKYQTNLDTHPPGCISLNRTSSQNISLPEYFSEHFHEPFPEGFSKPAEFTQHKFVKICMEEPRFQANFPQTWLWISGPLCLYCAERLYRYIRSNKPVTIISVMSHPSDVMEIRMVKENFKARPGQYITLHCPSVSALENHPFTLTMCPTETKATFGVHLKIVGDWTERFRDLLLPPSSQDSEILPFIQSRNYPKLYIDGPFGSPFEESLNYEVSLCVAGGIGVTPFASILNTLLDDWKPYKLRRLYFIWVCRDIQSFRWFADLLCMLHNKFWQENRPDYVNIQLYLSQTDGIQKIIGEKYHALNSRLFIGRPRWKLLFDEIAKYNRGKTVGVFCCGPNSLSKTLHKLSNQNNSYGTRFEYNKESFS
Source text: as §1, §2, §3

[4] = system: BV2 cells; assay: Nox inhibitory effect in BV2 cells (LPS-induced ROS generation, lucigenin chemiluminescence); assay type: cell-based; conditions: BV2 cells pre-treated 30 minutes, 0-10000 nM, then LPS 200 ng/ml; FIG. 3
Protocol: BV2 cells were washed with Hank's balanced salt solution (HBSS) and incubated in HBSS at 37° C. for 30 minutes. Then, the cells were treated with the compound (compound of Example 1 or compound of Example 2) at various concentrations (0 nM, 1 nM, 10 nM, 100 nM, 1000 nM, and 10000 nM). After 30 minutes, 200 ng/ml of lipopolysaccharide (LPS) and 200 μM of lucigenin were added to the cells. Lucigenin chemiluminescence was detected at 10 second intervals for 15 minutes using a luminometer (GLOMA, Promega).
Specifically, BV2 cells were pre-treated with Compound (A) of Example 1 or Compound (B) of Example 2 for 30 minutes and generation of reactive oxygen species (ROS) was detected after treatment with LPS (200 ng/ml). Data are expressed as mean ±SD (N=3).

[5] = system: PFF-induced Parkinson's disease; assay: PFF-induced Parkinson's disease mice; assay type: in vivo, C57BL/6 mice; conditions: 10 mg/kg intraperitoneal daily for 3 months
Protocol: In order to develop preformed fibrils (PFF)-induced Parkinson's disease, 8-12 week old C57BL/6 mice were stereotaxically inoculated with 5 μg of PFF into the right dorsal striatum (AP+0.2 mm, […], DV 2.6 mm). Five months post single inoculation of PFF, animals were intraperitoneally injected with the compound of Example 2 at 10 mg/kg daily for 3 months. […] The maximum force of the mouse forelimb was recorded with a grip strength meter. The single inoculation of PFF impaired the grip strength of the forelimb.

Structure (SMILES) | IC50 [1] [µM] | IC50 [2] [µM] | IC50 [3] [µM] | generation of reactive oxygen species (ROS) [4] | amount of α-synuclein in the hippocampus (HP CA1, HP CA3) ([5]; five months post PFF inoculation, FIG. 11) | astrocyte pathology (GFAP immuno-positive astrocytes) in the prefrontal cortex (Pfcx) ([5]; FIG. 12) | microglia pathology (Iba1 immunopositive activated microglia) in Pfcx and HP CA3 ([5]; FIG. 13) | neuromuscular function (forelimb grip strength) ([5]; FIG. 14)
CC(C)CN1C(=O)C(=Cc2ccc(N(C)CCO)cc2)N(C)C1=S (mixture of isomers) [Example 2, 5-(4-((2-hydroxyethyl)(methyl)amino)benzylidene)-3-isobutyl-1-methyl-2-thioxoimidazolidin-4-one] | 1.49 | 1.84 | 1.72 | significant inhibition of ROS generation | significantly decreased | reduced GFAP immuno-positive astrocytes | reduced Ibal immunopositive activated microglia | improved the grip strength
COc1cc(N(C)CCO)ccc1/C=C1\C(=O)N(C2CCCCC2)C(=S)N1C [Example 3, (E)-3-cyclohexyl-5-(4-((2-hydroxyethyl)(methyl)amino)-2-methoxybenzylidene)-1-methyl-2-thioxoimidazolidin-4-one] |  | 1.58 | 1.72 |  |  |  |  | 
CN1C(=S)N(C2CCCCC2)C(=O)/C1=C\c1ccc(N(C)CCO)cc1O [Example 4, (E)-3-cyclohexyl-5-(2-hydroxy-4-((2-hydroxyethyl)(methyl)amino)benzylidene)-1-methyl-2-thioxoimidazolidin-4-one] |  | 0.52 | 1.4 |  |  |  |  | 
CN1C(=S)N(Cc2ccccc2)C(=O)/C1=C\c1ccc(N(C)CCCO)cc1 [Example 5, (E)-3-benzyl-5-(4-((3-hydroxypropyl)(methyl)amino)benzylidene)-1-methyl-2-thioxoimidazolidin-4-one] |  | 1.35 | 0.907 |  |  |  |  | 
CN1C(=S)N(CCc2ccccc2)C(=O)/C1=C\c1ccc(N(C)CCO)cc1 [Example 6, (E)-5-(4-((2-hydroxyethyl)(methyl)amino)benzylidene)-1-methyl-3-phenethyl-2-thioxoimidazolidin-4-one] |  | 1.96 | 1.8 |  |  |  |  | 
CN1C(=S)N(Cc2ccccc2)C(=O)/C1=C\c1ccc(N(C)CCO)cc1O [Example 7, (E)-3-benzyl-5-(2-hydroxy-4-((2-hydroxyethyl)(methyl)amino)benzylidene)-1-methyl-2-thioxoimidazolidin-4-one] |  | 0.773 | 0.665 |  |  |  |  | 
COc1cc(N(C)CCCO)ccc1/C=C1\C(=O)N(Cc2ccccc2)C(=S)N1C [Example 8, (E)-3-benzyl-5-(4-((3-hydroxypropyl)(methyl)amino)-2-methoxybenzylidene)-1-methyl-2-thioxoimidazolidin-4-one] |  | 1.9 | 0.761 |  |  |  |  | 
